# From US20100063026A1, “ANTIBACTERIAL QUINOLINE DERIVATIVES” (priority 2007, published 2010)
# Tests used:
# [1] = tested on: Staphylococcus aureus (ATCC29213); experiment: Microtitre plate IC90 determination against non-mycobacterial strains: S. aureus; format: cell-based; settings: 90% inhibitory concentration for bacterial growth, 37° C., resazurin fluorescence; for IC90: Staphylococcus aureus, ATCC29213, 24 h, read-out: IC90 STA 1 B29213; for IC90 STA 1 B29213: 24 hours
# Description: (§1) The bacteria used in this study were grown overnight in flasks containing 100 ml Mueller-Hinton Broth (Becton Dickinson-cat. no. 275730) in sterile de-ionized water, with shaking, at 37° C. Stocks (0.5 ml/tube) were stored at -70° C. until use. Bacteria titrations were performed in microtiter plates to detect the TCID50, in which the TCID50 represents the dilution that gives rise to bacterial growth in 50% of inoculated cultures. In general, an inoculum level of approximately 100 TCID50 was used for susceptibility testing. […] Therefore resazurin (0.6 mg/ml) was added in a volume of 20 μl to all wells 3 hours after inoculation, and the plates were re-incubated overnight. A change in colour from blue to pink indicated the growth of bacteria.
# [2] = tested on: Streptococcus pneumoniae (ATCC6305); experiment: Microtitre plate IC90 determination against non-mycobacterial strains: S. pneumoniae; format: cell-based; settings: 90% inhibitory concentration for bacterial growth, 37° C., resazurin fluorescence; for IC90: Streptococcus pneumoniae, ATCC6305, 24 h, read-out: IC90 SPN 1 6305; for IC90 SPN 1 6305: 24 hours
# Description: as §1
# [3] = tested on: M. smegmatis ATCC607; experiment: In-vitro anti-bacterial activity against strain M. smegmatis ATCC607; settings: for IC90: Mycolicibacterium smegmatis, ATCC607, 48 h, read-out: IC90 MSM 1 ATCC607, 90% inhibitory concentration for bacterial growth, 37° C., Alamar Blue fluorescence; for IC90 MSM 1 ATCC607: 90% inhibitory concentration for bacterial growth, 48 hours, 37° C., Alamar Blue fluorescence
# Description: Flat-bottom, sterile 96-well plastic microtiter plates were filled with 180 μl of sterile deionized water, supplemented with 0.25% BSA. Subsequently, stock solutions (7.8× final test concentration) of compounds were added in 45 μl volumes to a series of duplicate wells in column 2 so as to allow evaluation of their effects on bacterial growth. Serial five-fold dilutions (45 μl in 180 μl) were made directly in the microtiter plates from column 2 to 11 using a customised robot system (Zymark Corp., Hopkinton, Mass.). Pipette tips were changed after every 3 dilutions to minimize pipetting errors with high hydrophobic compounds. Untreated control samples with (column 1) and without (column 12) inoculum were included in each microtiter plate. Approximately 250 CFU per well of bacteria inoculum, in a volume of 100 μl in 2.8× Mueller-Hinton broth medium, was added to the rows A to H, except column 12. The same volume of broth medium without inoculum was added to column 12 in row A to H. The cultures were incubated at 37° C. for 48 hours in a humidified 5% CO2 atmosphere (incubator with open air valve and continuous ventilation). At the end of incubation, two days after inoculation, the bacterial growth was quantitated fluorometrically. Therefore Alamar Blue (10×) was added to all wells in a volume of 20 μl and plates were incubated for another 2 hours at 50° C.
# The fluorescence was read in a computer-controlled fluorometer (Cytofluor, Biosearch) at an excitation wavelength of 530 nm and an emission wavelength of 590 nm (gain 30). The percentage growth inhibition achieved by the compounds was calculated according to standard methods and expressed as IC90 (μg/ml) which defines the 90% inhibitory concentration for bacterial growth.
smiles,measurement,setting,value
"COc1nc2ccc(Br)cc2cc1C(c1ccccc1)C(O)(CCCCN1CCCNCC1)c1ccc2ccccc2c1 (single isomer, unassigned) [Compound 33]",IC90,[1],2 µg/mL
same,IC90,[2],0.5 µg/mL
same,melting point,,119 °C
same,IC90,[3],0.4 µg/mL
"COc1nc2ccc(Br)cc2cc1C(c1ccccc1)C(O)(CCCCN1CCC(N2CCCCC2)CC1)c1ccc2ccccc2c1 (single isomer, unassigned) [Compound 29]",IC90 STA 1 B29213,[1],5.0 µg/mL
same,IC90 SPN 1 6305,[2],0.8 µg/mL
same,melting point,,177 °C
same,IC90 MSM 1 ATCC607,[3],2.2 µg/mL
"COc1nc2ccc(Br)cc2cc1C(c1ccccc1)C(O)(CCCCN1CC2CC1CN2Cc1ccccc1)c1ccccc1 (single isomer, unassigned) [Compound 49]",IC90 STA 1 B29213,[1],2.1 µg/mL
same,IC90 SPN 1 6305,[2],0.3 µg/mL
same,IC90 MSM 1 ATCC607,[3],2.1 µg/mL
"COc1nc2ccc(Br)cc2cc1C(c1ccccc1)C(O)(CCCCN1CC2CC1CN2Cc1ccccc1)c1ccc2ccccc2c1 (single isomer, unassigned) [Compound 21]",IC90 STA 1 B29213,[1],2.3 µg/mL
same,IC90 SPN 1 6305,[2],0.6 µg/mL
same,IC90 MSM 1 ATCC607,[3],5.8 µg/mL
"COc1nc2ccccc2cc1C(c1ccccc1)C(O)(CCCCN1CC2CC1CN2)c1ccc2ccccc2c1 (single isomer, unassigned) [Compound 19]",IC90 STA 1 B29213,[1],1.8 µg/mL
same,IC90 SPN 1 6305,[2],2.2 µg/mL
same,IC90 MSM 1 ATCC607,[3],1.6 µg/mL
COc1nc2ccc(Br)cc2cc1C(c1ccccc1)C(O)(CCCCN(C)CCc1ccccn1)c1ccccc1 (centres unmarked) [Compound 9],IC90 STA 1 B29213,[1],2.0 µg/mL
same,IC90 SPN 1 6305,[2],2.2 µg/mL
same,IC90 MSM 1 ATCC607,[3],2.0 µg/mL
"COc1nc2ccc(Br)cc2cc1C(c1ccccc1)C(O)(CCCCN1CCC1)c1ccccc1 (single isomer, unassigned) [Compound 41]",IC90 STA 1 B29213,[1],1.7 µg/mL
same,IC90 SPN 1 6305,[2],1.7 µg/mL
same,IC90,[3],1.7 µg/mL
"COc1nc2ccc(Br)cc2cc1C(c1ccccc1)C(O)(CCCCN1CC2CC1CN2Cc1ccccc1)CCc1ccccc1 (single isomer, unassigned) [Compound 12]",IC90 STA 1 B29213,[1],11.2 µg/mL
same,IC90,[2],2.2 µg/mL
same,IC90 MSM 1 ATCC607,[3],2.2 µg/mL
"COc1nc2ccc(Br)cc2cc1C(c1ccccc1)C(O)(CCCCN1CC2CC1CN2CCc1ccccc1)c1ccc2ccccc2c1 (single isomer, unassigned) [Compound 24]",IC90 STA 1 B29213,[1],11.7 µg/mL
same,IC90 SPN 1 6305,[2],2.1 µg/mL
same,IC90,[3],2.3 µg/mL
"COc1nc2ccc(Br)cc2cc1C(c1ccccc1)C(O)(CCCCc1ccccc1)CCCCN1CC2CC1CN2Cc1ccccc1 (single isomer, unassigned) [Compound 17]",IC90 STA 1 B29213,[1],2.3 µg/mL
same,IC90 SPN 1 6305,[2],0.8 µg/mL
same,IC90 MSM 1 ATCC607,[3],0.7 µg/mL
"COc1ccc(N2CCN(CCCCC(O)(c3ccc4ccccc4c3)C(c3ccccc3)c3cc4cc(Br)ccc4nc3OC)CC2)cc1 (single isomer, unassigned) [Compound 26]",IC90,[1],18.4 µg/mL
same,IC90,[2],18.4 µg/mL
same,IC90,[3],18.4 µg/mL
"COc1nc2ccc(Br)cc2cc1C(c1ccccc1)C(O)(CCCCNC1CC2CCC1C2)c1ccc2ccccc2c1 (single isomer, unassigned) [Compound 38]",IC90,[1],10.3 µg/mL
same,IC90,[2],2.6 µg/mL
same,IC90,[3],2.1 µg/mL
COc1nc2ccc(Br)cc2cc1C(c1ccccc1)C(O)(CCCCN(C)CCc1ccccn1)c1ccccc1 (centres unmarked) [Compound 7],IC90 STA 1 B29213,[1],2.0 µg/mL
same,IC90 SPN 1 6305,[2],2.0 µg/mL
same,IC90 MSM 1 ATCC607,[3],2.0 µg/mL
"COc1nc2ccc(Br)cc2cc1C(c1ccc(Cl)cc1)C(O)(CCCCN1CC2CC1CN2Cc1ccccc1)c1ccc2ccccc2c1 (single isomer, unassigned) [Compound 36]",IC90 STA 1 B29213,[1],53.9 µg/mL
same,IC90,[2],0.9 µg/mL
same,IC90,[3],2.7 µg/mL
"COc1nc2ccc(Br)cc2cc1C(c1ccccc1)C(O)(CCCCN1CC2CC1CN2Cc1ccccc1)c1ccccc1 (single isomer, unassigned) [Compound 48]",IC90,[1],2.1 µg/mL
same,IC90,[2],0.5 µg/mL
same,IC90,[3],2.4 µg/mL
"COc1nc2ccc(Br)cc2cc1C(c1ccccc1)C(O)(CCCCN1CCC(N2CCCCC2)CC1)c1ccc2ccccc2c1 (single isomer, unassigned) [Compound 28]",IC90 STA 1 B29213,[1],2.2 µg/mL
same,IC90 SPN 1 6305,[2],2.8 µg/mL
same,IC90,[3],2.5 µg/mL
COc1nc2ccc(Br)cc2cc1C(c1ccccc1)C(O)(CCCCN1CCCN(C)CC1)c1ccc2ccccc2c1 (centres unmarked) [Compound 35a],IC90 STA 1 B29213,[1],2.1 µg/mL
same,IC90 SPN 1 6305,[2],0.4 µg/mL
same,IC90 MSM 1 ATCC607,[3],0.9 µg/mL
"COc1nc2ccc(Br)cc2cc1C(c1ccccc1)C(O)(CCCCN1CCC(N2CCCCC2)CC1)CCc1ccccc1 (single isomer, unassigned) [Compound 11]",IC90 STA 1 B29213,[1],10.9 µg/mL
same,IC90 SPN 1 6305,[2],10.9 µg/mL
same,melting point,,164 °C
same,IC90 MSM 1 ATCC607,[3],12.2 µg/mL
COc1nc2ccc(Br)cc2cc1C(c1ccccc1)C(O)(CCCCN1CCCN(C)CC1)c1ccc2ccccc2c1 (centres unmarked) [Compound 34b],IC90,[1],2.1 µg/mL
same,IC90 SPN 1 6305,[2],2.1 µg/mL
same,IC90 MSM 1 ATCC607,[3],2.1 µg/mL
"COc1nc2ccc(Br)cc2cc1C(c1ccccc1)C(O)(CCCCc1ccccc1)CCCCN1CC2CC1CN2Cc1ccccc1 (single isomer, unassigned) [Compound 16]",IC90 STA 1 B29213,[1],7.3 µg/mL
same,IC90,[2],1.5 µg/mL
same,IC90,[3],0.6 µg/mL
"COc1nc2ccc(Br)cc2cc1C(c1ccccc1)C(O)(CCCCN1CCC1)c1ccccc1 (single isomer, unassigned) [Compound 42]",IC90 STA 1 B29213,[1],8.6 µg/mL
same,IC90 SPN 1 6305,[2],4.3 µg/mL
same,IC90 MSM 1 ATCC607,[3],2.2 µg/mL
"COc1nc2ccc(Br)cc2cc1C(c1ccccc1)C(O)(CCCCN1CC2CC1CN2Cc1ccccc1)CCCc1ccccc1 (single isomer, unassigned) [Compound 14]",IC90,[1],11.4 µg/mL
same,IC90,[2],2.6 µg/mL
same,IC90,[3],3.6 µg/mL
"COc1nc2ccc(Br)cc2cc1C(c1ccccc1)C(O)(CCCCCN1CCCN(C)CC1)c1ccc2ccccc2c1 (single isomer, unassigned) [Compound 55]",IC90 STA 1 B29213,[1],2.1 µg/mL
same,IC90 SPN 1 6305,[2],0.4 µg/mL
same,IC90 MSM 1 ATCC607,[3],2.1 µg/mL
"COc1nc2ccc(Br)cc2cc1C(c1ccccc1)C(O)(CCCCN1CCN(C2CCN(Cc3ccccc3)C2)CC1)c1ccc2ccccc2c1 (single isomer, unassigned) [Compound 30b]",IC90 STA 1 B29213,[1],62 µg/mL
same,IC90 SPN 1 6305,[2],31 µg/mL
same,IC90 MSM 1 ATCC607,[3],31 µg/mL
COc1nc2ccc(Br)cc2cc1C(c1ccccc1)C(O)(CCCCNC1CC2CCC1C2)c1ccc2ccccc2c1 (centres unmarked) [Compound 39],IC90,[1],1.8 µg/mL
same,IC90,[2],0.4 µg/mL
same,IC90 MSM 1 ATCC607,[3],1.8 µg/mL
"COc1nc2ccc(Br)cc2cc1C(c1ccccc1)C(O)(CCCCN1CC2CC1CN2CC(C)C)c1ccc2ccccc2c1 (single isomer, unassigned) [Compound 53]",IC90,[1],2.2 µg/mL
same,IC90,[2],0.1 µg/mL
same,IC90,[3],1.6 µg/mL
"COc1nc2ccc(Br)cc2cc1C(c1ccccc1)C(O)(CCCCN1CC2CC1CN2CCc1ccccc1)c1ccc2ccccc2c1 (single isomer, unassigned) [Compound 25]",IC90 STA 1 B29213,[1],2.3 µg/mL
same,IC90 SPN 1 6305,[2],0.5 µg/mL
same,melting point,,137 °C
same,IC90 MSM 1 ATCC607,[3],1.7 µg/mL
"CN1CCCN(CCCCC(O)(c2ccc3ccccc3c2)C(c2ccccc2)c2cc3cc(Br)ccc3[nH]c2=O)CC1 (single isomer, unassigned) [Compound 50]",IC90 STA 1 B29213,[1],10.1 µg/mL
same,IC90,[2],4.5 µg/mL
same,melting point,,210 °C
same,IC90 MSM 1 ATCC607,[3],2.3 µg/mL
"COc1nc2ccc(Br)cc2cc1C(c1ccccc1)C(O)(CCCCCN1CCCN(C)CC1)c1ccc2ccccc2c1 (single isomer, unassigned) [Compound 54]",IC90,[1],2.1 µg/mL
same,IC90 SPN 1 6305,[2],2.1 µg/mL
same,IC90,[3],2.1 µg/mL
